Values of other authors in patent publication US20250287953A1 (CHEMICEUTICAL INC., priority 2021, published 2025).

Which “acute oral toxicity to rodents LD50 (50% lethal dose)” value does the source give for zinc pyrithione here?
The value was 269 mg/kg.
